Experimental data: patent US4288609A, “Quaternary ammonium derivatives of adamantane with antimicrobic activity” (priority 1976, dated 1981)
Read-outs that look alike come from different tables or passages of the source.

Experiments:
Staph.Aureus Tour = assay: M.I.C. in vitro, gram+ Staph. Aureus (Table 1); format: cell-based, Staphylococcus Aureus; settings: Staphylococcus aureus, read-out: M.I.C.
How it was run: (§1)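 Broth dilution MIC: compound added to culture media pre-inoculated with a set number of organisms, incubated 24 or 48 h at 30 or 37 °C depending on the organism. Growth read visually; MIC expressed in γ/ml.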

Diplococcus Pneum. ISM = assay: M.I.C. in vitro, gram+ Diplococcus Pneum. (Table 1); format: cell-based; settings: read-out: M.I.C.
How it was run: as §1

[1] = system: Streptococ. Henclyt. 0203; assay: M.I.C. in vitro, gram+ Streptococ. Henclyt. (Table 1); format: cell-based; settings: read-out: M.I.C.
How it was run: as §1

Esch. Coli. SKF 12140 = assay: M.I.C. in vitro, gram- Esch. Coli (Table 1); format: cell-based, Escherichia Coli; settings: Escherichia coli, read-out: M.I.C.
How it was run: as §1

Klens. Pneum. ISM = assay: M.I.C. in vitro, gram- Klens. Pneum. (Table 1); format: cell-based; settings: read-out: M.I.C.
How it was run: as §1

Proteus Vulc. ATCC 881 = assay: M.I.C. in vitro, gram- Proteus Vulc. (Table 1); format: cell-based; settings: read-out: M.I.C.
How it was run: as §1

Pseudom.Aer. ATCC 1014 = assay: M.I.C. in vitro, gram- Pseudom. Aer. (Table 1); format: cell-based, Pseudomonas Aeruginosa; settings: Pseudomonas aeruginosa, read-out: M.I.C.
How it was run: as §1

[2] = system: Trych. Mentagr. 1st.Pastuer; assay: MIC mildews, Trichophyton mentagrophytes (Table 2); format: cell-based; settings: Trichophyton mentagrophytes, Sabourand broth, read-out: MIC
[3] = system: Nicrosporum Canis ATCC 11621; assay: MIC mildews, Microsporum canis (Table 2); format: cell-based; settings: Microsporum canis, Sabourand broth, read-out: MIC
Candida Albic. SKF 2270 = assay: MIC yeasts, Candida albicans (Table 2); format: cell-based; settings: for MIC: Candida, Sabourand broth, read-out: MIC
How it was run: (§2)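 Candida inoculum (10^3 cells/ml, from 24 h cultures at 30° C) in Sabouraud broth containing graded compound concentrations.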

[4] = system: Candida Pseudotrop. ATCC 2512; assay: MIC yeasts, Candida pseudotropicalis (Table 2); format: cell-based; settings: Candida, Sabourand broth, read-out: MIC
How it was run: as §2

[5] = system: Trich. Vaginalis ISM 66/22; assay: MIC protozoa, Trichomonas vaginalis (Table 2); format: cell-based; settings: Trichomonas vaginalis, +10% serum (head); Kupferberg Trichomonas broth with 5% of horse serum; read-out: MIC
How it was run: (§3)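 Test substance was added at set concentrations to Kupferberg Trichomonas broth with 5% horse serum, inoculated with T. vaginalis or T. foetus at 3.5% of medium volume. Growth was assessed after 24 or 48 h incubation at 30° or 37 °C. MIC is the minimum concentration inhibiting growth.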

Trich. Foetus ISM 66/23 = assay: MIC protozoa, Trichomonas foetus (Table 2); format: cell-based; settings: Tritrichomonas foetus, +10% serum (head); Kupferberg Trichomonas broth with 5% of horse serum; read-out: MIC
How it was run: as §3

[6] = system: Trichophyton Mentagrophytes Ist. Pasteur; assay: Speed of sterilising action, Trichophyton Mentagrophytes (Table 3); format: cell-based
Description: (§4) The strains, inoculants, culture broths and experimental methods are as already seen for calculating the M.I.C. in vitro. The antimicrobic substances were tested at concentrations of 0.1, 0.25, 0.5 and 1 g/l, the contact times taken into consideration are 0, 1, 2.5, 5, 7.5, 10, 15, 30 and 60 minutes.
(§5) The samples which at the 7th day of incubation still had no growth of micro-organisms which could be observed macroscopically and/or microscopically were considered sterile.
(§6) The results are recorded in Table 3 in terms of sterilization time expressed in minutes.

[7] = system: Candida Albicans SKF 2270; assay: Speed of sterilising action, Candida Albicans (Table 3); format: cell-based
Description: as §4, §5, §6

[8] = Acute oral toxicity in mice (Table 4); settings: mouse, in vivo, po, LD50, oral, mice, 14 days
Description: The substances were administered orally to groups of 10 female mice CF1 of average weight of about 20 grams, in aqueous solution and in such way that the total volume administered would be in each case 1 ml/100 g of weight.

[9] = system: Trichophyton Mentagrophytes; assay: Topical activity upon dermatophytis from Trichophyton in cavies (Table 6); format: in vivo, Albino cavies; settings: in vivo
Description: Albino cavies of 250-300 g are infected, after depilation and scarification of a circular area of dorsal skin upon which there are supplied 0.1 ml of a suspension of microconidia of Trichophyton Mentagrophytes from the Pasteur Institute collection, obtained from a culture of 15 days upon Saboureaud agar. 24 Hours after infection topical treatment is started and is continued for two weeks (once per day).
The compounds to be tested are dissolved or suspended at the desired concentration, in a water-alcohol mixture (75/25 v/v) containing 0.75% by weight of carboxymethyl-cellulose (CMC). […] Each single application is carried out using 0.25 ml of the suspension or solution obtained as described above.
Fourteen days after infection the lesions are assessed. Assessment is carried out by attributing index numbers depending upon the seriousness of the lesions formed, as follows:
The substances under examination were tested at concentrations of 5 and 2.5% by weight.

[10] = system: gram+ and gram- bacterial strains; assay: Activity in vitro on gram+ and gram- bacteria, overall; format: cell-based; settings: gram positive and gram negative strains, low concentrations
Description: The method for evaluating the activity in vitro against bacteria, fungi and protozoa consists in introducing calculated quantities of the substance, the activity of which it is desired to test, into culture media already inoculated with a predetermined number of test germs.
After 24 or 48 hours of incubation at 30° or 37° C., according to the micro-organism being tested, it is possible to evaluate the growth of the same in the culture broth; in this manner the minimum concentration (M.I.C.) which inhibits the growth of the micro-organisms in vitro is determined.
In table 1 there are recorded the M.I.C. values in γ/ml of the products subject of the present invention, against certain gram+ and gram- bacterial strains, some of which are pathogenic towards human beings.

[11] = system: all the micro-organisms tested; assay: Speed of sterilising action, all micro-organisms; format: cell-based; settings: even with a very low concentration
Description: as §4, §5, §6

CCCCCCCCCCCC[N+](C)(C)CCOC(=O)C12CC3CC(CC(C3)C1)C2 [Example 4]
MIC (Staph.Aureus Tour; +10% serum): 5 µg/mL
MIC (Staph.Aureus Tour; without serum): < 0.1 µg/mL
MIC (Diplococcus Pneum. ISM; +10% serum): 5 µg/mL
MIC (Diplococcus Pneum. ISM; without serum): 0.5 µg/mL
MIC ([1]; +10% serum): 0.3 µg/mL
MIC ([1]; without serum): < 0.1 µg/mL
MIC (Esch. Coli. SKF 12140; +10% serum): 100 µg/mL
MIC (Esch. Coli. SKF 12140; without serum): 2 µg/mL
MIC (Klens. Pneum. ISM; +10% serum): 100 µg/mL
MIC (Klens. Pneum. ISM; without serum): 2 µg/mL
MIC (Proteus Vulc. ATCC 881; +10% serum): 100 µg/mL
MIC (Proteus Vulc. ATCC 881; without serum): 2 µg/mL
MIC (Pseudom.Aer. ATCC 1014; ATCC1014, +10% serum): 100 µg/mL
MIC (Pseudom.Aer. ATCC 1014; ATCC1014, without serum): 10 µg/mL
MIC ([2]; +10% serum): 5 µg/mL
MIC ([2]; without serum): 0.1 µg/mL
MIC ([3]; ATCC11621, +10% serum): 20 µg/mL
MIC ([3]; ATCC11621, without serum): 0.1 µg/mL
MIC (Candida Albic. SKF 2270; +10% serum): 20 µg/mL
MIC (Candida Albic. SKF 2270; without serum): 0.2 µg/mL
activity on Candida albicans, times greater than that of cetyl pyridine chloride (Candida Albic. SKF 2270; in the absence of serum): about 25 times
activity on Candida albicans, times higher than that of cetyl pyridine chloride (Candida Albic. SKF 2270; in the presence of 10% of horse serum): 5-10 times
MIC ([4]; ATCC2512, +10% serum): 50 µg/mL
MIC ([4]; ATCC2512, without serum): 0.1 µg/mL
MIC [5]: 5 µg/mL
MIC (Trich. Foetus ISM 66/23): 5 µg/mL
sterilization time ([6]; 0.1 g/l): 60 min
sterilization time ([6]; 0.25 g/l): 60 min
sterilization time ([6]; 0.5 g/l): 15 min
sterilization time ([6]; 1 g/l): 5 min
sterilization time ([7]; 0.1 g/l): 30 min
sterilization time ([7]; 0.25 g/l): 10 min
sterilization time ([7]; 0.5 g/l): 5 min
sterilization time ([7]; 1 g/l): 1 min
LD50 at 336 h [8]: 820 mg/kg
in vivo activity against Trichophyton Mentagrophytes (in words) [9]: excellent "in vivo" activity against Trichophyton Mentagrophytes
antibacterial activity (in words) [10]: powerful antibacterial activity at low concentrations
sterilising action (in words) [11]: swift sterilising action on all the micro-organisms tested
